Assay results as given in patent US20090053138A1, “Stabilized Aptamers to Platelet Derived Growth Factor and their Use as Oncology Therapeutics” (priority 2002, published 2009).
[invdT] = inverted (3'-3') thymidine

Experiments:
[1] = biological target: PDGF BB (Homo sapiens, UniProt P01127); assay: Binding of ARC124 to PDGF BB
[2] = biological target: PDGF AB (Homo sapiens, UniProt P01127); assay: Binding of ARC124 to PDGF AB
[3] = test system: LS174T colon cancer xenograft; details: Monday through Friday
Description: Experimental overview. Human HT-29 or LS174T colon cancer xenotransplants were established in athymic nude mice (Nu/Nu mice, Charles River Labs, Wilmington, Mass.) by injecting mice with 1×10^7 HT29 cells (ATCC, Manassas, Va.), or 2×10^6 LS174T cells (ATCC Manassas, Va.) sub-cutaneously and allowing the tumors to grow for 5 days. On day 5, two dimensional measurements of the established tumors were taken using a digital caliper. Once tumor measurements were taken, the mice were randomized into groups such that the average tumor size was the same in each group. […]
A third experiment (Experiment 3) was designed to test ARC308/irinotecan and GLEEVEC™/irinotecan dosing regimens in a colon cancer xenotransplant model using human colon carcinoma cell line LS174T (ATCC). […] ARC308 was dosed via intraperitoneal delivery at 50 mg/kg once daily, and GLEEVEC™ was dosed at 50 mg/kg once daily, Monday through Friday. ARC308 prevents PDGF-BB from binding the PDGF receptor; this molecule has a 30K PEG attached. […] The results are statistically significant (two tailed students T-test).
An efficacy analysis of three treatment groups in this study is shown in Table 10 in terms of log cell kill and log cell kill net. Log cell kill is the log(base10) of the number of tumor cells before treatment divided by the number of cells after treatment. […] A fourth experiment (Experiment 4) was designed to further test ARC308/irinotecan dosing regimens in a colon cancer xenotransplant model using human colon carcinoma cell line LS174T (ATCC). […]

[4] = test system: HT29 colon cancer xenograft; assay: HT29 colon cancer xenograft model; assay type: in vivo, Nu/Nu mice; details: GLEEVEC 50 mg/kg orally BID Qd5 + irinotecan 150 mg/kg weekly vs irinotecan alone
[5] = test system: HCT-116 tumor; details: irinotecan 100 mg/kg plus Gleevec 50 mg/kg orally twice a day
Description: Each group was assigned to a treatment regimen as follows. […] Doses were adjusted for changing body weight twice per week and all mice were dosed with vehicle or aptamer at 10 ml of dosing solution per kg body weight given intraperitoneally. […] Groups 3, 10 and 11 were dosed with vehicle intraperitinoneally once per day from days 8-25. Groups 3, 5, 7, 8, and 9 were dosed on day 11, 18 and 25 with irintoecan (100 mg/kg, intraperitoneally). […] Group 11 was dosed on day 11 and 25 with irintoecan (100 mg/kg, intraperitoneally) and twice a day with imatinib at 50 mg/kg given orally on days 8-12 and 23-25.
The aptamer was allowed to come to room temperature for an hour before dosing. Unused material was stored at 4° C. for use the next day. Normal saline for the vehicle control was sterile filtered into sample vials and stored in the same manner as the aptamer dosing solutions. Aptamer and vehicle dosing solutions were coded so that the personnel dosing were blinded from their identity.

Sequence of PDGF AB (P01127 82-190 limits assumed, other chains not shown): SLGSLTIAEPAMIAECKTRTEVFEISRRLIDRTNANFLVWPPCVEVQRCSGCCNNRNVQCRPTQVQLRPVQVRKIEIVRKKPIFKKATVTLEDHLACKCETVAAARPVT
Sequence of PDGF BB (P01127 82-190 limits assumed): as the sequence (P01127 82-190 limits assumed, other chains not shown) above

Compound | Kd [1] [pM] | Kd [2] [pM] | tolerability of dosing regimen ([3]; Experiment 2: GLEEVEC 100 mg/kg once daily, P.O.) | efficacy of irinotecan (rate of tumor growth) ([3]; Experiment 3: GLEEVEC 50 mg/kg once daily, P.O + irinotecan) | efficacy of irinotecan (rate of tumor growth) [4] | mice dead by day 17 [5]
5′ CACAGGCTACGGCACGTAGAGCATCACCATGATCCTGTG-3′InvdT (SEQ ID NO:11) (DNA, 3' [invdT], backbone not given here) [ARC124] | ~100 | ~100 | – | – | – | –
Cc1ccc(NC(=O)c2ccc(CN3CCN(C)CC3)cc2)cc1Nc1nccc(-c2cccnc2)n1 [GLEEVEC™, imatinib, reference compound] | – | – | made the animals moribund | did not enhance the efficacy of Irinotecan | enhanced the efficacy of irinotecan treatment | 4 of 12
